Assay results from the NIST ThermoML archive (doi:10.1021/acs.jced.5b00544).

Test: mean ionic activity coefficient (dimensionless); mn = molality of the nth substance listed, in mol/kg
Conditions: 101 kPa, Liquid

[Cl-].[K+] [potassium chloride] + O
mean ionic activity coefficient
Conditions | 273.15 K | 283.15 K | 293.15 K | 303.15 K | 313.15 K | 323.15 K | 333.15 K | 343.15 K
m1 = 0.1 | 0.772 | 0.771 | 0.77 | 0.767 | 0.764 | 0.761 | 0.757 | 0.752
m1 = 0.2 | 0.719 | 0.719 | 0.719 | 0.716 | 0.714 | 0.71 | 0.705 | 0.699
m1 = 0.5 | 0.643 | 0.647 | 0.651 | 0.649 | 0.647 | 0.644 | 0.638 | 0.632
m1 = 1 | 0.581 | 0.592 | 0.602 | 0.602 | 0.603 | 0.601 | 0.596 | 0.588

[Cl-].[Na+] [sodium chloride] + O
mean ionic activity coefficient
Conditions | 273.15 K | 283.15 K | 293.15 K | 303.15 K | 313.15 K | 323.15 K | 333.15 K | 343.15 K | 353.15 K
m1 = 0.1 | 0.781 | 0.78 | 0.779 | 0.777 | 0.774 | 0.77 | 0.766 | 0.761 | 0.752
m1 = 0.2 | 0.734 | 0.735 | 0.735 | 0.732 | 0.729 | 0.725 | 0.72 | 0.713 | 0.703
m1 = 0.25 | 0.719 | 0.72 | 0.721 | 0.718 | 0.715 | 0.711 | 0.706 | 0.699 | 0.688
m1 = 0.5 | 0.672 | 0.677 | 0.681 | 0.68 | 0.678 | 0.674 | 0.667 | 0.659 | 0.647
m1 = 0.7 | 0.651 | 0.658 | 0.665 | 0.666 | 0.664 | 0.66 | 0.653 | 0.644 | 0.633
m1 = 0.75 | 0.646 | 0.655 | 0.662 | 0.663 | 0.662 | 0.658 | 0.651 | 0.641 | 0.631
m1 = 1 | 0.629 | 0.641 | 0.653 | 0.655 | 0.655 | 0.652 | 0.644 | 0.633 | 0.624
